Laboratory results taken from patent US20210207188A1, “BETA-LACTAM COMPOUNDS AND METHODS OF USE THEREOF” (priority 2018, published 2021).

Experiments:
[1] = tested on: beta-lactamases, including NDM-1, IMP-1, VIM-2, KPC-2, OXA-48, AmpC, and TEM; assay: Fluorescence-based activity assay, whole panel of tested beta-lactamases; format: biochemical; conditions: conclusion from fluorescence signals
Method: (§1) Recombinant his-tagged beta-lactamases, including NDM-1, IMP-1, KPC-2, VIM-2 and OXA-48 were overexpressed in Escherichia coli. The enzymes were purified using HisTrap Ni-NTA columns. AmpC and TEM were purchased from commercial sources.
(§2) The fluorescence-based activity assays were performed in phosphate-buffer saline. The concentration of some of the compounds were determined by boiling the compounds in PBS solution until fluorescence signal was saturated. The amount of released fluorophore was quantified via fluorescence spectroscopy by comparing to a corresponding calibration curve.
(§3) Among the tested beta-lactamases, NDM-1, IMP-1, VIM-2, KPC-2 and OXA-48 are carbapenemases, whereas AmpC and TEM are not. Nitrocefin was used as a control to test the activity of the beta-lactamases because it can be hydrolyzed by a wide range of beta-lactamases.

[2] = tested on: clinical isolates (CPE, Carbapenemase Producing Enterobacteriaceae, and Non CPE strains); assay: Selectivity of probes with clinical isolates in lysis buffer (visible light and UV light); format: cell-based; conditions: probe 10 μM
Method: The selectivity of some probes were evaluated with clinical isolates. The carbapenemases presence in the bacteria (CPE, i.e., Carbapenemase Producing Enterobacteriaceae) were verified by PCR (Polymerase Chain Reaction). 1 μL loop-full of each test bacterium from overnight-cultured LB agar plate were added to 100 μL PBS buffer with 0.5% CHAPS. The bacteria were vortexed to give a homogenious suspension and incubated for 15 min. To each of the bacteria-lysis buffer mixture (20 μL) were added quick test reagents (Probes (Final concentration=10 μM), CarbaNP solution A and CarbaNP solution B). CarbaNP solutions A and B were freshly prepared according to CLSI protocol, where solution A contains 10 mM zinc sulphate and phenol red buffer at pH=7.8±0.1 and solution B was a mixture of solution A with 3 mg/mL imipenem.

[3] = tested on: AmpC; assay: Activity of beta-lactamases towards probes (fluorescence-based activity assay), AmpC; format: biochemical; conditions: probe 2.0 μM (MCW-002 1.1 μM, MCW-011 0.5 μM), PBS
Method: as §1, §2

[4] = target: T1, TEM (Escherichia coli, UniProt P62593); assay: Activity of beta-lactamases towards probes (fluorescence-based activity assay), TEM; format: biochemical; conditions: probe 2.0 μM (MCW-002 1.1 μM, MCW-011 0.5 μM), PBS
T1 construct: purchased
T1 sequence (P62593 24-286 limits assumed): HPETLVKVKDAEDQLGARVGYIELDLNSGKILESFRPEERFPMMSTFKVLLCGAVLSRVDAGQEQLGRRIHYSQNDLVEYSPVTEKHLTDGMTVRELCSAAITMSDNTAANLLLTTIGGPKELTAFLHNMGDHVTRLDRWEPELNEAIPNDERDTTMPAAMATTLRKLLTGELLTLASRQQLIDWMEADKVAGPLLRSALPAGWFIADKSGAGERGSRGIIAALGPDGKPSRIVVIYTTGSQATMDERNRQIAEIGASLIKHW
Method: as §1, §2

[5] = target: T2, NDM-1 (Klebsiella pneumoniae, UniProt C7C422); format: biochemical; conditions: for Kcat / Km: Michaelis-Menten kinetics; for time until hydrolysis reaction complete (fluorescent signal plateaued): probe 2.0 μM; for fluorescence signal over time: probe 2.0 μM (MCW-002 1.1 μM, MCW-011 0.5 μM), PBS
T2 construct: His tag; made in house; host or cells: Escherichia coli
T2 sequence (C7C422 29-270 limits assumed): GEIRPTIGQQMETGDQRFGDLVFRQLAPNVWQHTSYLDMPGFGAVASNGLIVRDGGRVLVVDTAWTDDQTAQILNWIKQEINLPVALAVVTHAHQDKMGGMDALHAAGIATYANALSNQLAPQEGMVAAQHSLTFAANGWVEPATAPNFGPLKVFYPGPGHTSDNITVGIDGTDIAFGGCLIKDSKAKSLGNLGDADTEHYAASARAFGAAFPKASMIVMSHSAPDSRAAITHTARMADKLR
Method: as §1, §2

[6] = target: T3, KPC-2 (Klebsiella pneumoniae, UniProt Q9F663); format: biochemical; conditions: for Kcat / Km: Michaelis-Menten kinetics; for fluorescence signal over time: probe 2.0 μM (MCW-002 1.1 μM, MCW-011 0.5 μM), PBS
T3 construct: His tag; made in house; host or cells: Escherichia coli
T3 sequence (Q9F663 25-293 limits assumed): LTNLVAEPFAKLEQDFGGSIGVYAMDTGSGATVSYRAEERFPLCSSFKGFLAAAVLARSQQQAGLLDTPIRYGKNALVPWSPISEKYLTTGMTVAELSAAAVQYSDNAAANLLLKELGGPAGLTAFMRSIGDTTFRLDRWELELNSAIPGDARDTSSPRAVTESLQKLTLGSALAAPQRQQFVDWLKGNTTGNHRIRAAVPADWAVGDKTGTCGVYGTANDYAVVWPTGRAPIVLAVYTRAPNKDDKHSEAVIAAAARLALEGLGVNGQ
Method: as §1, §2

[7] = target: T4, IMP-1 (Serratia marcescens, UniProt P52699); format: biochemical; conditions: for 3S/k (detection limit of the probe towards the carbapenemase) / time until hydrolysis reaction complete (fluorescent signal plateaued) / fluorescence signal over time / Kcat / Km: IMP-1; for time until hydrolysis reaction complete (fluorescent signal plateaued): probe 2.0 μM; for fluorescence signal over time: probe 2.0 μM (MCW-002 1.1 μM, MCW-011 0.5 μM), PBS; for Kcat / Km: Michaelis-Menten kinetics
T4 construct: His tag; made in house; host or cells: Escherichia coli
T4 sequence (P52699 19-246 limits assumed): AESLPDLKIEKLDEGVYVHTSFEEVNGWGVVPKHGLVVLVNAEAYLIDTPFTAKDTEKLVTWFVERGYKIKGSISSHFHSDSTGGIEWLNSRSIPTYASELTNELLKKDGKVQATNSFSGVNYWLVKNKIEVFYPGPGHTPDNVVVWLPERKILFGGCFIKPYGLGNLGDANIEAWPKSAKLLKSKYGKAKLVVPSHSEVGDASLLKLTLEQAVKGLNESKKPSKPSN
Method: as §1, §2

[8] = target: T5, OXA-48 (Klebsiella pneumoniae, UniProt Q6XEC0); format: biochemical; conditions: for fluorescence signal over time: probe 2.0 μM (MCW-011 0.5 μM), PBS
T5 construct: His tag; made in house; host or cells: Escherichia coli
T5 sequence (Q6XEC0 23-265 limits assumed): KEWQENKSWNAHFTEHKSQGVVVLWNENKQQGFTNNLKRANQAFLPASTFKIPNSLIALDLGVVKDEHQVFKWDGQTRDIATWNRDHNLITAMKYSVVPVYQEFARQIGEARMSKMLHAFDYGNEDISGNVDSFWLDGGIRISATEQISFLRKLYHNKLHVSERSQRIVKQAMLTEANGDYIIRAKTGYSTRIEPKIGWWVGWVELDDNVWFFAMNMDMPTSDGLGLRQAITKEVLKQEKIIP
Method: as §1, §2

[9] = target: T6, VIM-2 (Escherichia coli, UniProt Q5U7L7); format: biochemical; conditions: for Kcat / Km: Michaelis-Menten kinetics; for fluorescence signal over time: probe 2.0 μM (MCW-011 0.5 μM), PBS
T6 construct: His tag; made in house; host or cells: Escherichia coli
Method: as §1, §2

[10] = tested on: beta-lactamases, including NDM-1, IMP-1, VIM-2, KPC-2, OXA-48, AmpC, and TEM; assay: Hydrolysis of nitrocefin by beta-lactamases, absorbance at 485 nm; format: biochemical; conditions: nitrocefin 50 μM
Method: as §1
The enzymatic activity of these beta-lactamases in hydrolysing beta-lactam compounds was tested using nitrocefin as a probe. Nitrocefin (50 μM) dissolved in phosphate buffer (pH=7.4) was mixed with each purified beta-lactamase. Once hydrolyzed, nitrocefin underwent a rapid color change from yellow to red. The hydrolysis process of nitrocefin was monitored by measuring the absorbance at 485 nm with a Molecular Device SpectraMax® Paradigm® Multi-Mode Microplate Reader.
as §3

Row | Compound | specificity among the tested beta-lactamases [1] | signal with panel of clinical isolates ([2]; incubated for 15 min) | signal with panel of clinical isolates ([2]; incubated for 120 min) | fluorescence signal over time [3] | fluorescence signal over time [4] | 3S/k (detection limit of the probe towards the carbapenemase) [5] | Kcat [5] | Km [5] | time until hydrolysis reaction complete (fluorescent signal plateaued) [5] | fluorescence signal over time [5] | 3S/k (detection limit of the probe towards the carbapenemase) [6] | relative rate of hydrolysis reaction [6] | Kcat [6] | Km [6] | fluorescence signal over time [6] | 3S/k (detection limit of the probe towards the carbapenemase) [7] | time until hydrolysis reaction complete (fluorescent signal plateaued) [7] | fluorescence signal over time [7] | Kcat [7] | Km [7] | also measured
1 | COc1cc(COc2ccc3nc4ccc(=O)cc-4oc3c2)ccc1OC/C=C/C1=C(C(=O)O)N2C(=O)[C@H]([C@@H](C)O)[C@H]2[C@H]1C [MCW-007, (4S,5R,6S)-6-((R)-1-hydroxyethyl)-3-((E)-3-(2-methoxy-4-(((3-oxo-3H-phenoxazin-7-yl)oxy)methyl)phenoxy)prop-1-en-1-yl)-4-methyl-7-oxo-1-azabicyclo[3.2.0]hept-2-ene-2-carboxylic acid] | specific for some carbapenemases | observable colorimetric and fluorescence signal in some CPE strains but not the Non CPE strains | observable colorimetric and fluorescence signal in CPE strains but not the Non CPE strains | minimal changes in the fluorescent signal | minimal changes in the fluorescent signal | 0.439 pM | 95.1 ± 4.32 s⁻¹ | 1.56 ± 0.17 µM | ≤ 5 min | pronounced increase in the fluorescent signal | 8.50 pM | slower compared to the reaction with NDM-1 and IMP-1 | 8.04 ± 1.96 s⁻¹ | 0.77 ± 0.06 µM | pronounced increase in the fluorescent signal | 0.379 pM | ≤ 5 min | pronounced increase in the fluorescent signal | 116 ± 2.81 s⁻¹ | 1.33 ± 0.08 µM | 3S/k (detection limit of the probe towards the carbapenemase) [8]: 367 pM; fluorescence signal over time [8]: did not provide significant fluorescence response; 3S/k (detection limit of the probe towards the carbapenemase) [9]: 5.22 pM; relative rate of hydrolysis reaction [9]: slower compared to the reaction with NDM-1 and IMP-1; Kcat [9]: 6.87 ± 0.11 s⁻¹; Km [9]: 0.92 ± 0.04 µM; fluorescence signal over time [9]: pronounced increase in the fluorescent signal
2 | COc1cc(COc2ccc3nc4ccc(=O)cc-4oc3c2)ccc1OC/C=C/C1=C(C(=O)O)N2C(=O)[C@H]([C@@H](C)O)[C@H]2C1 [MCW-001, (5R,6S)-6-((R)-1-hydroxyethyl)-3-((E)-3-(2-methoxy-4-(((3-oxo-3H-phenoxazin-7-yl)oxy)methyl)phenoxy)prop-1-en-1-yl)-7-oxo-1-azabicyclo[3.2.0]hept-2-ene-2-carboxylic acid] | specific for carbapenemases | observable colorimetric and fluorescence signal in CPE strains but not the Non CPE strains | observable colorimetric and fluorescence signal in CPE strains but not the Non CPE strains | minimal changes in the fluorescent signal | minimal changes in the fluorescent signal | 0.327 pM | 29.8 ± 0.81 s⁻¹ | 1.66 ± 0.13 µM | ≤ 2 min | pronounced increase in the fluorescent signal | 4.43 pM | slower compared to the reactions with NDM-1 and IMP-1 | 2.17 ± 0.07 s⁻¹ | 0.93 ± 0.11 µM | pronounced increase in the fluorescent signal | 0.333 pM | ≤ 2 min | pronounced increase in the fluorescent signal | 33.9 ± 0.71 s⁻¹ | 1.2 ± 0.08 µM | time until hydrolysis reaction complete (fluorescent signal plateaued) ([6]; probe 2.0 μM): about 25 min; fluorescence turn-on signal upon beta-lactam hydrolysis ([7]; MCW-001 1 μM, IMP-1 0.5 μM): more than 60 fold; absorption change over time ([7]; MCW-001 10 μM, IMP-1 2 μM): decreased in absorbance maximum at 480 nm and increase in absorbance maximum at 571 nm; 3S/k (detection limit of the probe towards the carbapenemase) [8]: 30.3 pM; Kcat ([8]; Michaelis-Menten kinetics): 2.83 ± 0.18 s⁻¹; Km ([8]; Michaelis-Menten kinetics): 0.66 ± 0.08 µM; time until hydrolysis reaction complete (fluorescent signal plateaued) ([8]; probe 2.0 μM): > 30 min; fluorescence signal over time [8]: pronounced increase in the fluorescent signal; 3S/k (detection limit of the probe towards the carbapenemase) [9]: 3.28 pM; relative rate of hydrolysis reaction [9]: slower compared to the reactions with NDM-1 and IMP-1; Kcat [9]: 1.96 ± 0.05 s⁻¹; Km [9]: 1.18 ± 0.1 µM; time until hydrolysis reaction complete (fluorescent signal plateaued) ([9]; probe 2.0 μM): about 25 min; fluorescence signal over time [9]: pronounced increase in the fluorescent signal
3 | O=C(Cc1cccs1)N[C@@H]1C(=O)N2C(C(=O)O)=C(/C=C/c3ccc([N+](=O)[O-])cc3[N+](=O)[O-])CS[C@H]12 [nitrocefin] |  |  |  |  |  |  |  |  |  |  |  |  |  |  |  |  |  |  |  |  | hydrolysis of nitrocefin ([10]; all of the tested beta-lactamases): can hydrolyze nitrocefin; time until hydrolysis reactions complete (absorption at 485 nm plateaued) ([10]; except NDM-1): ≤ 30 min
